Source: PubChem BioAssay (NCI)
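Results reflect a 48-hour exposure of cells in 96-well plates to compound at five concentrations. Definition used: TGI = concentration required for complete inhibition of growth.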

Tests used:
Assay in all cases: growth of human tumour cells (NCI), 48 h
[1] = system: 786-0 renal
[2] = system: A498 renal
[3] = system: A549 NSCLC
[4] = system: ACHN renal
[5] = system: BT-549 breast
[6] = system: CAKI-1 renal
[7] = system: CCRF-CEM leukemia
[8] = system: COLO 205 colon
[9] = system: DU-145 prostate
[10] = system: EKVX NSCLC
[11] = system: HCC-2998 colon
[12] = system: HCT-116 colon
[13] = system: HCT-15 colon
[14] = system: HL-60(TB) leukemia
[15] = system: HOP-62 NSCLC
[16] = system: HOP-92 NSCLC
[17] = system: HS 578T breast
[18] = system: HT29 colon
[19] = system: IGROV1 ovarian
[20] = system: K-562 leukemia
[21] = system: KM12 colon
[22] = system: LOX IMVI melanoma
[23] = system: M14 melanoma
[24] = system: MALME-3M melanoma
[25] = system: MCF7 breast
[26] = system: MDA-MB-231 breast
[27] = system: MDA-MB-435
[28] = system: MDA-N
[29] = system: MOLT-4 leukemia
[30] = system: NCI-H226 lung
[31] = system: NCI-H23 lung
[32] = system: NCI-H460 lung
[33] = system: NCI-H522 lung
[34] = system: NCI/ADR-RES ovarian
[35] = system: OVCAR-3 ovarian
[36] = system: OVCAR-4 ovarian
[37] = system: OVCAR-5 ovarian
[38] = system: OVCAR-8 ovarian
[39] = system: PC-3 prostate
[40] = system: RPMI-8226 leukemia
[41] = system: RXF 393 renal
[42] = system: SF-268 CNS
[43] = system: SK-MEL-2 melanoma
[44] = system: SK-MEL-28 melanoma
[45] = system: SK-MEL-5 melanoma
[46] = system: SK-OV-3 ovarian
[47] = system: SN12C renal
[48] = system: SNB-19 CNS
[49] = system: SNB-75 CNS
[50] = system: SW-620 colon
[51] = system: T-47D breast
[52] = system: U251 CNS
[53] = system: UACC-257 melanoma
[54] = system: UACC-62 melanoma
[55] = system: SF-295 CNS
[56] = system: TK-10 renal
[57] = system: UO-31 renal
[58] = system: SF-539 CNS

C[C@]12CC(c3ccccc3O1)C(C(N)=O)C(=O)N2 (stereo not given in full)
TGI [1]: > 100 µM
TGI [2]: > 100 µM
TGI [3]: > 100 µM
TGI [4]: > 100 µM
TGI [5]: > 100 µM
TGI [6]: > 100 µM
TGI [7]: > 100 µM
TGI [8]: > 100 µM
TGI [9]: > 100 µM
TGI [10]: > 100 µM
TGI [11]: > 100 µM
TGI [12]: > 100 µM
TGI [13]: > 100 µM
TGI [14]: > 100 µM
TGI [15]: > 100 µM
TGI [16]: > 100 µM
TGI [17]: > 100 µM
TGI [18]: > 100 µM
TGI [19]: > 100 µM
TGI [20]: > 100 µM
TGI [21]: > 100 µM
TGI [22]: > 100 µM
TGI [23]: > 100 µM
TGI [24]: > 100 µM
TGI [25]: > 100 µM
TGI [26]: > 100 µM
TGI [27]: > 100 µM
TGI [28]: > 100 µM
TGI [29]: > 100 µM
TGI [30]: > 100 µM
TGI [31]: > 100 µM
TGI [32]: > 100 µM
TGI [33]: > 100 µM
TGI [34]: > 100 µM
TGI [35]: > 100 µM
TGI [36]: > 100 µM
TGI [37]: > 100 µM
TGI [38]: > 100 µM
TGI [39]: > 100 µM
TGI [40]: > 100 µM
TGI [41]: > 100 µM
TGI [42]: > 100 µM
TGI [43]: > 100 µM
TGI [44]: > 100 µM
TGI [45]: > 100 µM
TGI [46]: > 100 µM
TGI [47]: > 100 µM
TGI [48]: > 100 µM
TGI [49]: > 100 µM
TGI [50]: > 100 µM
TGI [51]: > 100 µM
TGI [52]: > 100 µM
TGI [53]: > 100 µM
TGI [54]: > 100 µM

OCCNc1ncnc2nc[nH]c12
TGI [1]: > 100 µM
TGI [2]: > 100 µM
TGI [3]: > 100 µM
TGI [4]: > 100 µM
TGI [5]: > 100 µM
TGI [6]: > 100 µM
TGI [8]: > 100 µM
TGI [9]: > 100 µM
TGI [10]: > 100 µM
TGI [11]: > 100 µM
TGI [12]: > 100 µM
TGI [13]: > 100 µM
TGI [14]: > 100 µM
TGI [15]: > 100 µM
TGI [16]: > 100 µM
TGI [17]: > 100 µM
TGI [18]: > 100 µM
TGI [19]: > 100 µM
TGI [20]: > 100 µM
TGI [21]: > 100 µM
TGI [22]: > 100 µM
TGI [23]: > 100 µM
TGI [24]: > 100 µM
TGI [25]: > 100 µM
TGI [26]: > 100 µM
TGI [27]: > 100 µM
TGI [28]: > 100 µM
TGI [29]: > 100 µM
TGI [30]: > 100 µM
TGI [31]: > 100 µM
TGI [32]: > 100 µM
TGI [33]: > 100 µM
TGI [34]: > 100 µM
TGI [35]: > 100 µM
TGI [36]: > 100 µM
TGI [37]: > 100 µM
TGI [38]: > 100 µM
TGI [39]: > 100 µM
TGI [40]: > 100 µM
TGI [41]: > 100 µM
TGI [42]: > 100 µM
TGI [55]: > 100 µM
TGI [43]: > 100 µM
TGI [44]: > 100 µM
TGI [45]: > 100 µM
TGI [46]: > 100 µM
TGI [47]: > 100 µM
TGI [48]: > 100 µM
TGI [49]: > 100 µM
TGI [50]: > 100 µM
TGI [51]: > 100 µM
TGI [56]: > 100 µM
TGI [52]: > 100 µM
TGI [53]: > 100 µM
TGI [54]: > 100 µM
TGI [57]: > 100 µM

O=C(C(=NC12CC3CC(CC(C3)C1)C2)NNc1ccc([N+](=O)[O-])cc1[N+](=O)[O-])C(Br)C(=O)c1ccccc1 (stereo not given)
TGI [1]: > 10 µM
TGI [2]: 6.96 µM
TGI [3]: > 10 µM
TGI [4]: > 10 µM
TGI [5]: > 10 µM
TGI [6]: > 10 µM
TGI [7]: 7.67 µM
TGI [8]: 4.23 µM
TGI [9]: > 10 µM
TGI [10]: 9.64 µM
TGI [11]: > 10 µM
TGI [12]: 8.78 µM
TGI [13]: > 10 µM
TGI [14]: 5.57 µM
TGI [15]: 6.84 µM
TGI [16]: 6.66 µM
TGI [17]: > 10 µM
TGI [18]: > 10 µM
TGI [19]: > 10 µM
TGI [20]: > 10 µM
TGI [21]: > 10 µM
TGI [22]: 6.25 µM
TGI [23]: 6.84 µM
TGI [24]: > 10 µM
TGI [25]: > 10 µM
TGI [26]: 6.13 µM
TGI [27]: > 10 µM
TGI [28]: > 10 µM
TGI [29]: 9.72 µM
TGI [30]: 8.31 µM
TGI [31]: 8.4 µM
TGI [32]: > 10 µM
TGI [34]: > 10 µM
TGI [35]: 8.83 µM
TGI [36]: > 10 µM
TGI [37]: > 10 µM
TGI [38]: > 10 µM
TGI [39]: 9.87 µM
TGI [40]: 6.38 µM
TGI [41]: 8.31 µM
TGI [42]: > 10 µM
TGI [55]: > 10 µM
TGI [58]: 8.73 µM
TGI [43]: > 10 µM
TGI [44]: > 10 µM
TGI [45]: 2.5 µM
TGI [46]: 9.04 µM
TGI [47]: > 10 µM
TGI [48]: > 10 µM
TGI [49]: 7.38 µM
TGI [50]: > 10 µM
TGI [51]: 9.29 µM
TGI [56]: > 10 µM
TGI [52]: > 10 µM
TGI [53]: 6.28 µM
TGI [54]: > 10 µM
TGI [57]: > 10 µM

Cc1ccc(C[N+](C)(C)N)cc1C
TGI [1]: > 10 µM
TGI [2]: > 10 µM
TGI [3]: > 10 µM
TGI [4]: > 10 µM
TGI [5]: > 10 µM
TGI [6]: > 10 µM
TGI [7]: > 10 µM
TGI [8]: > 10 µM
TGI [9]: > 10 µM
TGI [10]: > 10 µM
TGI [11]: > 10 µM
TGI [12]: > 10 µM
TGI [13]: > 10 µM
TGI [14]: > 10 µM
TGI [15]: > 10 µM
TGI [16]: > 10 µM
TGI [17]: > 10 µM
TGI [18]: > 10 µM
TGI [19]: > 10 µM
TGI [20]: > 10 µM
TGI [21]: > 10 µM
TGI [22]: > 10 µM
TGI [23]: > 10 µM
TGI [24]: > 10 µM
TGI [25]: > 10 µM
TGI [26]: > 10 µM
TGI [27]: > 10 µM
TGI [28]: > 10 µM
TGI [29]: > 10 µM
TGI [30]: > 10 µM
TGI [31]: > 10 µM
TGI [32]: > 10 µM
TGI [33]: > 10 µM
TGI [34]: > 10 µM
TGI [35]: > 10 µM
TGI [36]: > 10 µM
TGI [37]: > 10 µM
TGI [38]: > 10 µM
TGI [39]: > 10 µM
TGI [40]: > 10 µM
TGI [41]: > 10 µM
TGI [42]: > 10 µM
TGI [55]: > 10 µM
TGI [58]: > 10 µM
TGI [44]: > 10 µM
TGI [45]: > 10 µM
TGI [46]: > 10 µM
TGI [47]: > 10 µM
TGI [48]: > 10 µM
TGI [49]: > 10 µM
TGI [50]: > 10 µM
TGI [51]: > 10 µM
TGI [56]: > 10 µM
TGI [52]: > 10 µM
TGI [53]: > 10 µM
TGI [54]: > 10 µM
TGI [57]: > 10 µM

CC1(C)OCC(C2CCC3(C)C4=CCC5C(C)(C)C(O)CCC5(C)C4CCC23C)CC(O)C1O (stereo not given)
TGI [1]: 28.7 µM
TGI [2]: 42.6 µM
TGI [3]: 36 µM
TGI [4]: 45.9 µM
TGI [5]: 32.9 µM
TGI [6]: 27.5 µM
TGI [7]: 68.7 µM
TGI [8]: 43.5 µM
TGI [9]: 29 µM
TGI [10]: 28.5 µM
TGI [11]: 32.3 µM
TGI [12]: 27.3 µM
TGI [13]: 32.8 µM
TGI [14]: 56.7 µM
TGI [16]: 36.4 µM
TGI [17]: 44.7 µM
TGI [18]: 33.4 µM
TGI [19]: 33.1 µM
TGI [20]: 21.6 µM
TGI [21]: 28.1 µM
TGI [22]: 31.7 µM
TGI [23]: 35.4 µM
TGI [24]: 30.6 µM
TGI [25]: 47.3 µM
TGI [26]: 35.7 µM
TGI [27]: 31.8 µM
TGI [28]: 34.5 µM
TGI [29]: 35.9 µM
TGI [30]: 32.9 µM
TGI [31]: 38.2 µM
TGI [32]: 41.4 µM
TGI [33]: 36.3 µM
TGI [34]: 39.5 µM
TGI [35]: 30 µM
TGI [36]: 32.3 µM
TGI [37]: 36.2 µM
TGI [38]: 33.3 µM
TGI [39]: 26.6 µM
TGI [40]: 48.6 µM
TGI [42]: 37.6 µM
TGI [55]: 35.6 µM
TGI [58]: 39.9 µM
TGI [43]: 32.5 µM
TGI [44]: 32.6 µM
TGI [45]: 28.7 µM
TGI [46]: 35.5 µM
TGI [47]: 36.2 µM
TGI [48]: 29.5 µM
TGI [49]: 29 µM
TGI [50]: 37.4 µM
TGI [51]: 23.8 µM
TGI [56]: 28.7 µM
TGI [52]: 31.3 µM
TGI [53]: 30.6 µM
TGI [54]: 29.1 µM
TGI [57]: 33.2 µM
